Test results from ChEMBL document CHEMBL4507283, “Data for DCP probe BI-1935” (2021).

Legend:
[1] = molecular target: Sigma non-opioid intracellular receptor 1 (Homo sapiens, UniProt Q99720); assay: GPCRScan assay: inhibition of Sigma 1; parameters: radioligand conc. used [nm] 4.0 – 5.0, parental cells HEKT
[2] = molecular target: D(3) dopamine receptor (Homo sapiens) (UniProt P35462); assay: D3/HU Eurofins-Panlabs selectivity data (BI); settings: Compound concentration 10.0 uM
[3] = molecular target: Histamine H1 receptor (Homo sapiens) (UniProt P35367); assay: H1/H Eurofins-Panlabs selectivity data (BI); settings: Compound concentration 10.0 uM
Histamine H1 receptor (Homo sapiens), sequence (P35367 whole entry): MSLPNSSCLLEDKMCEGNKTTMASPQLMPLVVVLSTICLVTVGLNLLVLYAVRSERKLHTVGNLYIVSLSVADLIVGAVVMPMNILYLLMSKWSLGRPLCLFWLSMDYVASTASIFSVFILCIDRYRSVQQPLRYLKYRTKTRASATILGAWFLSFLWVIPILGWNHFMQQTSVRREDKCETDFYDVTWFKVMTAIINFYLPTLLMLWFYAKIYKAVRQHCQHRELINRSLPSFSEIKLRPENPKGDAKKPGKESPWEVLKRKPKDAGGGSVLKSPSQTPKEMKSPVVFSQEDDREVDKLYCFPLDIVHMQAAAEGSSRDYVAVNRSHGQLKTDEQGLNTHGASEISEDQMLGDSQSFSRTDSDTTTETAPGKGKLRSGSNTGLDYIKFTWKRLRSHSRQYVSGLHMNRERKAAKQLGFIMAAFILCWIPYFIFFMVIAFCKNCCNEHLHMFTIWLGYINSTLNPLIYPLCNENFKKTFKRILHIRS

[4] = molecular target: Leukotriene C4 synthase (Cavia porcellus) (UniProt A6XA80); assay: LTC4SYN Eurofins-Panlabs selectivity data (BI); settings: Compound concentration 10.0 uM
Leukotriene C4 synthase (Cavia porcellus), sequence (A6XA80 whole entry): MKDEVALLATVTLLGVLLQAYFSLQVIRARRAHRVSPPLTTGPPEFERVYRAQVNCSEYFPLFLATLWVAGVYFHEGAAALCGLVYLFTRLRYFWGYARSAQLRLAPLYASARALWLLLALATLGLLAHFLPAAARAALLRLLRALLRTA

[5] = test system: Tyrosine-protein kinase ABL1 (Homo sapiens), P00519 [F317I]; settings: Compound concentration 1000.0 nM
[6] = molecular target: Activin receptor type-2B (Homo sapiens) (UniProt Q13705); settings: Compound concentration 1000.0 nM
Activin receptor type-2B (Homo sapiens), sequence (Q13705 whole entry): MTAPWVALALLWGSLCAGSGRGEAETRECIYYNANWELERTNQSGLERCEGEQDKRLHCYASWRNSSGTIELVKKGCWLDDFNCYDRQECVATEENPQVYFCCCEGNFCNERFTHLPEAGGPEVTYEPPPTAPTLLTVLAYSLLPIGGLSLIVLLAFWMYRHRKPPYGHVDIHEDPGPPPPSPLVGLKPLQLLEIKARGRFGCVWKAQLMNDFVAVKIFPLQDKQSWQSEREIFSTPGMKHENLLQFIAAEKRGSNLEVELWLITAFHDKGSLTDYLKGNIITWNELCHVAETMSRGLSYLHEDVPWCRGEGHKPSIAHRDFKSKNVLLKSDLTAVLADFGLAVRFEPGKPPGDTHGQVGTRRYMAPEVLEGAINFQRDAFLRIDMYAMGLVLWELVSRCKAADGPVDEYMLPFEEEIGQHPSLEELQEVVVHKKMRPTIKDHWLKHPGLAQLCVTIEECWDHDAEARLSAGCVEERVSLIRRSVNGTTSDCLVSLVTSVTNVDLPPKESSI

[7] = molecular target: Atypical kinase COQ8A, mitochondrial (Homo sapiens) (UniProt Q8NI60); settings: Compound concentration 1000.0 nM
[8] = molecular target: 5'-AMP-activated protein kinase catalytic subunit alpha-2 (Homo sapiens) (UniProt P54646); settings: Compound concentration 1000.0 nM
[9] = molecular target: Tyrosine-protein kinase receptor UFO (Homo sapiens) (UniProt P30530); settings: Compound concentration 1000.0 nM
[10] = molecular target: Calcium/calmodulin-dependent protein kinase type 1B (Homo sapiens) (UniProt Q6P2M8); settings: Compound concentration 1000.0 nM
[11] = molecular target: Cyclin-dependent kinase 13 (Homo sapiens) (UniProt Q14004); settings: Compound concentration 1000.0 nM
[12] = molecular target: Macrophage colony-stimulating factor 1 receptor (Homo sapiens) (UniProt P07333); settings: Compound concentration 1000.0 nM
[13] = molecular target: Casein kinase I isoform gamma-3 (Homo sapiens) (UniProt Q9Y6M4); settings: Compound concentration 1000.0 nM
Casein kinase I isoform gamma-3 (Homo sapiens), sequence (Q9Y6M4 whole entry, looked up, canonical isoform): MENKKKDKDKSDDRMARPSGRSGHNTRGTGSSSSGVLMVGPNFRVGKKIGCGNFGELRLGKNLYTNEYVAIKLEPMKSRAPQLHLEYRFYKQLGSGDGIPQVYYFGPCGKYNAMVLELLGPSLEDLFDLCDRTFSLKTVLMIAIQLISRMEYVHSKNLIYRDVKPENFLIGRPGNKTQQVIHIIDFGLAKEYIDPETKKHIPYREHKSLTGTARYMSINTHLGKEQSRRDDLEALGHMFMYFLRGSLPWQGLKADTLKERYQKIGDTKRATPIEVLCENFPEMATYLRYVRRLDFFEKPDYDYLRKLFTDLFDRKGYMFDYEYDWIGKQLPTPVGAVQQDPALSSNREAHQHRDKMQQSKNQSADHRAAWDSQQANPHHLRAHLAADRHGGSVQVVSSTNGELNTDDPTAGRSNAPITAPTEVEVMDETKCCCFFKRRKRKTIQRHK

[14] = molecular target: Casein kinase II subunit alpha (Homo sapiens) (UniProt P68400); settings: Compound concentration 1000.0 nM
Casein kinase II subunit alpha (Homo sapiens), sequence (P68400 whole entry, looked up): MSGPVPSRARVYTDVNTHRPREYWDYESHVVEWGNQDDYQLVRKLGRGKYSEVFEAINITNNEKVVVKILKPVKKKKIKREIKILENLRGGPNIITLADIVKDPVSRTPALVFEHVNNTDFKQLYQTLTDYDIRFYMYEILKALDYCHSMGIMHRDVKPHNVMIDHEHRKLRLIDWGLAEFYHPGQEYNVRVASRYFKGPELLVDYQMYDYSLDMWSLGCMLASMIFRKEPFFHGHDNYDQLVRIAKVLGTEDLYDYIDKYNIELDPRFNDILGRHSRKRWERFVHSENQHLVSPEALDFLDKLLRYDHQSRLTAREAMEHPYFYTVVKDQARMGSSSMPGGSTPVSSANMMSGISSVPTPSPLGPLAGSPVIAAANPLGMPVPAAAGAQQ

[15] = molecular target: Mitogen-activated protein kinase kinase kinase 12 (Homo sapiens) (UniProt Q12852); settings: Compound concentration 1000.0 nM
[16] = molecular target: Myotonin-protein kinase (Homo sapiens) (UniProt Q09013); settings: Compound concentration 1000.0 nM
[17] = test system: Epidermal growth factor receptor (Homo sapiens), P00533 [L858R,T790M]; settings: Compound concentration 1000.0 nM
[18] = molecular target: Ephrin type-A receptor 2 (Homo sapiens) (UniProt P29317); settings: Compound concentration 1000.0 nM
[19] = molecular target: Ephrin type-B receptor 2 (Homo sapiens) (UniProt P29323); settings: Compound concentration 1000.0 nM
[20] = molecular target: Ephrin type-B receptor 6 (Homo sapiens) (UniProt O15197); settings: Compound concentration 1000.0 nM
[21] = molecular target: Fibroblast growth factor receptor 4 (Homo sapiens) (UniProt P22455); settings: Compound concentration 1000.0 nM
[22] = molecular target: Vascular endothelial growth factor receptor 1 (Homo sapiens) (UniProt P17948); settings: Compound concentration 1000.0 nM
[23] = molecular target: Tyrosine-protein kinase Fyn (Homo sapiens) (UniProt P06241); settings: Compound concentration 1000.0 nM
[24] = molecular target: Cyclin-G-associated kinase (Homo sapiens) (UniProt O14976); settings: Compound concentration 1000.0 nM
[25] = molecular target: Insulin receptor-related protein (Homo sapiens) (UniProt P14616); settings: Compound concentration 1000.0 nM
[26] = molecular target: Tyrosine-protein kinase ITK/TSK (Homo sapiens) (UniProt Q08881); settings: Compound concentration 1000.0 nM
[27] = test system: Mast/stem cell growth factor receptor Kit (Homo sapiens), P10721 [A829P]; settings: Compound concentration 1000.0 nM
[28] = molecular target: Tyrosine-protein kinase Lyn (Homo sapiens) (UniProt P07948); settings: Compound concentration 1000.0 nM
[29] = molecular target: Mitogen-activated protein kinase kinase kinase 15 (Homo sapiens) (UniProt Q6ZN16); settings: Compound concentration 1000.0 nM
[30] = molecular target: Serine/threonine-protein kinase PAK 1 (Homo sapiens) (UniProt Q13153); settings: Compound concentration 1000.0 nM
[31] = molecular target: Serine/threonine-protein kinase PAK 2 (Homo sapiens) (UniProt Q13177); settings: Compound concentration 1000.0 nM
[32] = molecular target: Serine/threonine-protein kinase PAK 6 (Homo sapiens) (UniProt Q9NQU5); settings: Compound concentration 1000.0 nM
Serine/threonine-protein kinase PAK 6 (Homo sapiens), sequence (Q9NQU5 whole entry, looked up): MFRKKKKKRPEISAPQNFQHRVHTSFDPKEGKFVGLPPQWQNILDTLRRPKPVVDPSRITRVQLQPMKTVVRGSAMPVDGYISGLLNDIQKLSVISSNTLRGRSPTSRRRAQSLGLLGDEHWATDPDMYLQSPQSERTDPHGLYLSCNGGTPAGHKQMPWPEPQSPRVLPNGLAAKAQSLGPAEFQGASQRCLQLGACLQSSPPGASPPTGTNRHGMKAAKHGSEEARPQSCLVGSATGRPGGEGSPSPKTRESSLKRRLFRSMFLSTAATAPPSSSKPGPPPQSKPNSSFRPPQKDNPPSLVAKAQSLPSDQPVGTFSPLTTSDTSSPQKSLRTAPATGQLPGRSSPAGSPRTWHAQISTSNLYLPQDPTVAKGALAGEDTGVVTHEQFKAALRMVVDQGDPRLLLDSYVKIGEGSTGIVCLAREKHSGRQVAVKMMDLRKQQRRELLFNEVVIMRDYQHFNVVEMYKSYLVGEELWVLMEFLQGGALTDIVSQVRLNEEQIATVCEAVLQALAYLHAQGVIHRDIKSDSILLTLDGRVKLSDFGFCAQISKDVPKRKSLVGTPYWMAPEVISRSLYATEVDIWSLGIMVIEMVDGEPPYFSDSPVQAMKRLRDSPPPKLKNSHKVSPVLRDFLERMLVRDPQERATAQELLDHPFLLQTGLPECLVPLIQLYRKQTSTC

[33] = molecular target: Serine/threonine-protein kinase PAK 5 (Homo sapiens) (UniProt Q9P286); settings: Compound concentration 1000.0 nM
[34] = molecular target: Serine/threonine-protein kinase pim-3 (Homo sapiens) (UniProt Q86V86); settings: Compound concentration 1000.0 nM
[35] = molecular target: Serine/threonine-protein kinase PLK3 (Homo sapiens) (UniProt Q9H4B4); settings: Compound concentration 1000.0 nM
[36] = molecular target: Serine/threonine-protein kinase RIO1 (Homo sapiens) (UniProt Q9BRS2); settings: Compound concentration 1000.0 nM
Serine/threonine-protein kinase RIO1 (Homo sapiens), sequence (Q9BRS2 whole entry): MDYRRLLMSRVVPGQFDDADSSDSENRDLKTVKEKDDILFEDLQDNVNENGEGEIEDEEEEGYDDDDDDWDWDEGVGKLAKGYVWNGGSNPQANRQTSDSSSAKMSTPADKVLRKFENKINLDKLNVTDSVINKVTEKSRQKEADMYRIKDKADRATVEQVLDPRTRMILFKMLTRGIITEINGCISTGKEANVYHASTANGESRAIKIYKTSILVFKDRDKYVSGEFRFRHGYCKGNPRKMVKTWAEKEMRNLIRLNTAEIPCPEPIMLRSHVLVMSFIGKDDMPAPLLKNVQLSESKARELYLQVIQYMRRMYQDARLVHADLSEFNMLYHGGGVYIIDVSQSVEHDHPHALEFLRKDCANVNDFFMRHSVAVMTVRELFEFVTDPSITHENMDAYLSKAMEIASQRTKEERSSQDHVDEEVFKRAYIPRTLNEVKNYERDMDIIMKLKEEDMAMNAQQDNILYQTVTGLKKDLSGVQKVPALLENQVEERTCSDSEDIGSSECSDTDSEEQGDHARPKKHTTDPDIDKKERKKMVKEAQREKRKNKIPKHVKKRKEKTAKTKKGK

[37] = molecular target: Ribosomal protein S6 kinase alpha-4 (Homo sapiens) (UniProt O75676); settings: Compound concentration 1000.0 nM
[38] = molecular target: STE20/SPS1-related proline-alanine-rich protein kinase (Homo sapiens) (UniProt Q9UEW8); settings: Compound concentration 1000.0 nM
[39] = molecular target: Tyrosine-protein kinase receptor Tie-1 (Homo sapiens) (UniProt P35590); settings: Compound concentration 1000.0 nM
Tyrosine-protein kinase receptor Tie-1 (Homo sapiens), sequence (P35590 whole entry): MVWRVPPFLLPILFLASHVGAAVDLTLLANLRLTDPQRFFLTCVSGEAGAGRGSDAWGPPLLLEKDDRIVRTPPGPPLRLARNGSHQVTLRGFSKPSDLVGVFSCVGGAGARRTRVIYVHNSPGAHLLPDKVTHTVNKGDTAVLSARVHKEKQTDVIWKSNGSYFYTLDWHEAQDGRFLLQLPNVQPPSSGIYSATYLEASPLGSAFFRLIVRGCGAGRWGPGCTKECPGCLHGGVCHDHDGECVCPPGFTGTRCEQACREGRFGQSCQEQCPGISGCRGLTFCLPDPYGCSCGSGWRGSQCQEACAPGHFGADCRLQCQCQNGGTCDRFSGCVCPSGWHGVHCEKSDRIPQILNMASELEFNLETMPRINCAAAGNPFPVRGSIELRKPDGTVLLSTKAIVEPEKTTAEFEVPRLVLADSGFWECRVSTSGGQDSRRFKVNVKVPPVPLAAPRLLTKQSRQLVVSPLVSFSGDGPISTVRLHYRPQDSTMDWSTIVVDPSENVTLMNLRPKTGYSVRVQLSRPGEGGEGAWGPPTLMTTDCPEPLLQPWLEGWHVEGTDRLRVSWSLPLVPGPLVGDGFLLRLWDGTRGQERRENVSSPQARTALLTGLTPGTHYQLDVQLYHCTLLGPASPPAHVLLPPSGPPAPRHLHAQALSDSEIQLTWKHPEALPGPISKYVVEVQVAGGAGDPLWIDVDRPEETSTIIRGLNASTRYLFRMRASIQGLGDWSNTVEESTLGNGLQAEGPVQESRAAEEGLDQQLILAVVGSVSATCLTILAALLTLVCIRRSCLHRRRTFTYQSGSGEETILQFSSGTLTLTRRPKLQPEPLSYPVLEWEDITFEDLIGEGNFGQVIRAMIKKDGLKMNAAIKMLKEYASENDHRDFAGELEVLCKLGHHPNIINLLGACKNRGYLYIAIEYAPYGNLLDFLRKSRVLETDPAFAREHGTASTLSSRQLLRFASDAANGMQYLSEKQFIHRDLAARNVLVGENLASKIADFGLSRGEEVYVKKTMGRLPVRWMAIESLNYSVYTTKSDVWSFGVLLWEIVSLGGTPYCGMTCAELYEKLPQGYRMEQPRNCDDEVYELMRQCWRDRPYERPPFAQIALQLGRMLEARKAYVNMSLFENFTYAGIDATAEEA

[40] = molecular target: Serine/threonine-protein kinase 32C (Homo sapiens) (UniProt Q86UX6); settings: Compound concentration 1000.0 nM
Serine/threonine-protein kinase 32C (Homo sapiens), sequence (Q86UX6 whole entry): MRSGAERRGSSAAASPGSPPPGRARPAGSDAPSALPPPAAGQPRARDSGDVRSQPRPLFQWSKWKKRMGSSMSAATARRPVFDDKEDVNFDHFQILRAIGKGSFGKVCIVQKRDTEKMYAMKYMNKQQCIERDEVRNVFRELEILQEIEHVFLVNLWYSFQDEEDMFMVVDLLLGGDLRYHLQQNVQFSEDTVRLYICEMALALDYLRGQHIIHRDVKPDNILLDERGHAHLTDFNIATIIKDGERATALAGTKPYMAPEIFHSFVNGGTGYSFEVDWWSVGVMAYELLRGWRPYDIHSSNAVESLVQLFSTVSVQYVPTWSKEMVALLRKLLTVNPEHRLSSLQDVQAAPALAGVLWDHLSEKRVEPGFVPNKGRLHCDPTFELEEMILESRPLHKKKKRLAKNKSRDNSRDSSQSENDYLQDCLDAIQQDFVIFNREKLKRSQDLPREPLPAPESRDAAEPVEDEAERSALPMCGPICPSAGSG

[41] = molecular target: D(1A) dopamine receptor (Homo sapiens) (UniProt P21728); settings: Compound concentration 10.0 uM
[42] = molecular target: Mu-type opioid receptor (Homo sapiens) (UniProt P35372); settings: Compound concentration 10.0 uM
[43] = molecular target: Kappa-type opioid receptor (Homo sapiens) (UniProt P41145); settings: Compound concentration 10.0 uM
[44] = molecular target: GABA-A receptor; anion channel (Rattus norvegicus) (UniProt O09028+P15431+P18506+P18508+P19969+P20236+P23574+P23576+P28471+P28473+P30191+P62813+P63079+P63138+Q91ZM7+Q9ES14); settings: Compound concentration 10.0 uM

CCOCCn1cc(C(=O)Nc2ccc(-n3nc(-c4cccnc4)cc3C(F)(F)F)cn2)ccc1=O [BI 1935]
6.28 µM: Ki [1]
inactive: residual activity [2] 110% | residual activity [3] 98% | residual activity [4] 112% | residual activity [5] 91% | residual activity [6] 100% | residual activity [7] 90% | residual activity [8] 100% | residual activity [9] 91% | residual activity [10] 79% | residual activity [11] 92% | residual activity [12] 100% | residual activity [13] 100% | residual activity [14] 70% | residual activity [15] 100% | residual activity [16] 100% | residual activity [17] 96% | residual activity [18] 93% | residual activity [19] 61% | residual activity [20] 94% | residual activity [21] 100% | residual activity [22] 100% | residual activity [23] 53% | residual activity [24] 100% | residual activity [25] 100% | residual activity [26] 83% | residual activity [27] 100% | residual activity [28] 81% | residual activity [29] 100% | residual activity [30] 96% | residual activity [31] 84% | residual activity [32] 100% | residual activity [33] 98% | residual activity [34] 90% | residual activity [35] 84% | residual activity [36] 100% | residual activity [37] 80% | residual activity [38] 100% | residual activity [39] 81% | residual activity [40] 100% | inhibition [41] -7.31% | inhibition [42] 2.68% | inhibition [43] 3.2% | inhibition [44] 34.3%
